What follows are compounds tested against T1, human beta-3-adrenergic receptor (Homo sapiens, UniProt P13945) (assay: cAMP production (beta-3 agonist activity) in CHO cells stably expressing human beta-3-adrenergic receptor, cAMP SPA). Details: CHO cells expressing full-length human beta-3-adrenergic receptor, 30 min incubation, 10 μM to 3 nM, read-out: Beta-3 Agonistic Activity: Compounds with EC50 values >1 μM.
T1 construct: stably express full-length human beta-3-adrenergic receptor; expressed in transfected cells; host or cells: Chinese hamster ovary (CHO) cells
Type: cell-based
Description: Chinese hamster ovary (CHO) cells that stably express full-length human beta-3-adrenergic receptor (Granneman et al., Mol. Pharmacol. 44:264-270, 1993) can be used in the following procedure. The cell line is grown in 90% F12 nutrient mixture (HAM), 10% fetal bovine serum, 100 units/ml penicillin G sodium, […] streptomycin sulfate, and 2 mM L-glutamine at 37° C. in 95% air and 5% CO2. The transfected cell line is maintained with G-418 (800 μg/ml).
To test the agonist activity, cells are exposed to test compound and then assayed for cAMP production. CHO cells (100 μl) are plated at 5×10^4 cells/well of a 96-well plate (Costar, Cambridge, Mass.) to achieve 70% confluency the next day. After overnight incubation at 37° C., media is removed and the cells are treated for 30 minutes at 37° C. with KRP buffer (120 mM NaCl, 5.1 mM KCl, 0.6 mM MgSO4.7H2O, 0.8 mM CaCl2.H2O, […] phosphate buffer, […] Hepes pH 7.4)+[…] IBMX ([…]), +1% DMSO, +/− test compounds ([…]). Test compounds are assayed from 10 μM to 3 nM with 3-fold serial dilutions. The control agonist, isoproterenol (10 mM stock in 1.1 mM ascorbate), is assayed by 3-fold dilution beginning at 1 μM. After a 30-minute incubation with the test compounds, the buffer/compound mixture is removed. The cells are lysed and cAMP levels are measured using the cAMP SPA screening assay system (Amersham, Arlington Heights, Ill.). The cAMP values are then plotted to determine the EC50 of each compound tested.

T1 sequence (P13945 whole entry): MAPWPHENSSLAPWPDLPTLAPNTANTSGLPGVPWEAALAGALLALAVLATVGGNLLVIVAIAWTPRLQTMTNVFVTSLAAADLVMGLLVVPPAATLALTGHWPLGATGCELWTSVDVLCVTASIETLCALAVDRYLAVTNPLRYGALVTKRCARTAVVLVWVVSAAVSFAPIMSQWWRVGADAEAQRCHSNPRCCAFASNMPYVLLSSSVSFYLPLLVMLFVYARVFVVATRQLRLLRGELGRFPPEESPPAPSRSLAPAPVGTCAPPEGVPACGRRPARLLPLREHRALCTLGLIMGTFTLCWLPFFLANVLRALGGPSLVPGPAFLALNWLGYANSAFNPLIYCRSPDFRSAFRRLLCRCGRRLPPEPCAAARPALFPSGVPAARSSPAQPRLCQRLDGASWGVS

| SMILES | EC50 [nM] |
| --- | --- |
| O[C@@H](CNC[C@H]1CCc2cc(-c3ccc(Cl)c(Cl)c3)ccc2O1)c1cccnc1 [Example 39, (1R)-2-({[(2R)-6-(3,4-dichlorophenyl)-3,4-dihydro-2H-chromen-2-yl]methyl}amino)-1-(3-pyridinyl)ethanol] | > 1000 |
| COc1cccc(-c2ccc3c(c2)CC[C@H](CNC[C@H](O)c2cccnc2)O3)c1 [Example 43] | > 1000 |

The next lines start with the values.

| EC50 [nM] | SMILES |
| --- | --- |
| > 1000 | O[C@@H](CNC[C@H]1CCc2cc(-c3cccc(Cl)c3)ccc2O1)c1cccnc1 [Example 41] |
| > 1000 | O=[N+]([O-])c1cccc(-c2ccc3c(c2)CC[C@H](CNC[C@H](O)c2cccnc2)O3)c1 [Example 42] |
| > 1000 | Cc1ccc(-c2ccc3c(c2)CC[C@H](CNC[C@H](O)c2cccnc2)O3)cc1 [Example 45] |

Same assay, conditions: CHO cells expressing full-length human beta-3-adrenergic receptor, 30 min incubation, 10 μM to 3 nM, read-out: Beta-3 Agonistic Activity: Compounds with EC50 values ≦1 μM

| SMILES | EC50 [nM] |
| --- | --- |
| O=C(O)c1ccc(CCc2ccc3c(c2)CCC(CNC[C@H](O)c2cccnc2)O3)cc1 (stereo in doubt) [Example 215, 4-{2-[(2S)-2-({[(2R)-2-hydroxy-2-(3-pyridinyl)ethyl]amino}methyl)-3,4-dihydro-2H-chromen-6-yl]ethyl}benzoic Acid] | ≤ 1000 |
| O=C(O)c1cccc(CCc2ccc3c(c2)CCC(CNC[C@H](O)c2cccnc2)O3)c1 (stereo in doubt) [Example 216, 3-{2-[(2S)-2-({[(2R)-2-hydroxy-2-(3-pyridinyl)ethyl]amino}methyl)-3,4-dihydro-2H-chromen-6-yl]ethyl}benzoic Acid] | ≤ 1000 |
| COCC(=O)NS(=O)(=O)c1cccc(-c2ccc3c(c2)CCC(CNC[C@H](O)c2cccnc2)O3)c1 (stereo in doubt) [Example 283, 3-[(2S)-2-({[(2R)-2-hydroxy-2-(3-pyridinyl)ethyl]amino}methyl)-3,4-dihydro-2H-chromen-6-yl]-N-(methoxyacetyl)benzenesulfonamide] | ≤ 1000 |
| O[C@@H](CNC[C@H]1CCc2cc(-c3ccccc3C(F)(F)F)ccc2O1)c1cccnc1 [Example 40] | ≤ 1000 |
| O[C@@H](CNC[C@H]1CCc2cc(-c3ccc(-c4ccccc4)cc3)ccc2O1)c1cccnc1 [Example 47] | ≤ 1000 |
| O[C@@H](CNC[C@H]1CCc2cc(-c3cccc4ccccc34)ccc2O1)c1cccnc1 [Example 54] | ≤ 1000 |
| COc1cc(-c2ccc3c(c2)CC[C@H](CNC[C@H](O)c2cccnc2)O3)ccc1C(=O)O [Example 184, 4-[(2R)-2-({[(2R)-2-hydroxy-2-(3-pyridinyl)ethyl]amino}methyl)-3,4-dihydro-2H-chromen-6-yl]-2-methoxybenzoic acid] | ≤ 1000 |
| CCCOc1cc(-c2ccc3c(c2)CC[C@H](CNC[C@H](O)c2cccnc2)O3)ccc1C(=O)O [Example 186, 4-[(2R)-2-({[(2R)-2-hydroxy-2-(3-pyridinyl)ethyl]amino}methyl)-3,4-dihydro-2H-chromen-6-yl]-2-propoxybenzoic acid] | ≤ 1000 |
| COCCOc1cc(-c2ccc3c(c2)CC[C@H](CNC[C@H](O)c2cccnc2)O3)ccc1C(=O)O [Example 187, 4-[(2R)-2-({[(2R)-2-hydroxy-2-(3-pyridinyl)ethyl]amino}methyl)-3,4-dihydro-2H-chromen-6-yl]-2-(2-methoxyethoxy)benzoic acid] | ≤ 1000 |
| CC(C)Oc1cc(-c2ccc3c(c2)CC[C@H](CNC[C@H](O)c2cccnc2)O3)ccc1C(=O)O [Example 188, 4-[(2R)-2-({[(2R)-2-hydroxy-2-(3-pyridinyl)ethyl]amino}methyl)-3,4-dihydro-2H-chromen-6-yl]-2-isopropoxybenzoic acid] | ≤ 1000 |
| O=C(O)c1ccc(-c2ccc3c(c2)CC[C@H](CNC[C@H](O)c2cccnc2)O3)cc1Oc1ccccc1 [Example 192, 4-[(2R)-2-({[(2R)-2-hydroxy-2-(3-pyridinyl)ethyl]amino}methyl)-3,4-dihydro-2H-chromen-6-yl]-2-(phenyloxy)benzoic Acid] | ≤ 1000 |
| O=C(O)c1ccc(-c2ccc3c(c2)CC[C@H](CNC[C@H](O)c2cccnc2)O3)cc1Oc1ccc(F)cc1 [Example 193, 2-(4-fluorophenoxy)-4-[(2R)-2-({[(2R)-2-hydroxy-2-(3-pyridinyl)ethyl]amino}methyl)-3,4-dihydro-2H-chromen-6-yl]benzoic acid] | ≤ 1000 |
| COc1ccc(Oc2cc(-c3ccc4c(c3)CC[C@H](CNC[C@H](O)c3cccnc3)O4)ccc2C(=O)O)cc1 [Example 196, 4-[(2R)-2-({[(2R)-2-hydroxy-2-(3-pyridinyl)ethyl]amino}methyl)-3,4-dihydro-2H-chromen-6-yl]-2-(4-methoxyphenoxy)benzoic acid] | ≤ 1000 |
| CCOC(=O)c1ccc(Oc2cc(-c3ccc4c(c3)CC[C@H](CNC[C@H](O)c3cccnc3)O4)ccc2C(=O)O)cc1 [Example 197, 2-[4-(ethoxycarbonyl)phenoxy]-4-[(2R)-2-({[(2R)-2-hydroxy-2-(3-pyridinyl)ethyl]amino}methyl)-3,4-dihydro-2H-chromen-6-yl]benzoic acid] | ≤ 1000 |
| CS(=O)(=O)c1ccc(Oc2cc(-c3ccc4c(c3)CC[C@H](CNC[C@H](O)c3cccnc3)O4)ccc2C(=O)O)cc1 [Example 198, 4-[(2R)-2-({[(2R)-2-hydroxy-2-(3-pyridinyl)ethyl]amino}methyl)-3,4-dihydro-2H-chromen-6-yl]-2-[4-(methylsulfonyl)phenoxy]benzoic acid] | ≤ 1000 |
| Cc1ccc(-c2cc(-c3ccc4c(c3)CC[C@H](CNC[C@H](O)c3cccnc3)O4)ccc2C(=O)O)cc1 [Example 205, 5-[(2R)-2-({[(2R)-2-hydroxy-2-(3-pyridinyl)ethyl]amino}methyl)-3,4-dihydro-2H-chromen-6-yl]-4′-methyl-1,1′-biphenyl-2-carboxylic Acid] | ≤ 1000 |
| CC(C)Cc1cc(-c2ccc3c(c2)CC[C@H](CNC[C@H](O)c2cccnc2)O3)ccc1C(=O)O [Example 211, 4-[(2R)-2-({[(2R)-2-hydroxy-2-(3-pyridinyl)ethyl]amino}methyl)-3,4-dihydro-2H-chromen-6-yl]-2-isobutylbenzoic Acid] | ≤ 1000 |
| CN1C(=O)c2ccc(NS(=O)(=O)c3cccc(-c4ccc5c(c4)CC[C@H](CNC[C@H](O)c4cccnc4)O5)c3)cc2C1=O [Example 252] | ≤ 1000 |
| O=S(=O)(Nc1cccnc1)c1ccc(-c2ccc3c(c2)CC[C@H](CNC[C@H](O)c2cccnc2)O3)cc1 [Example 253, 4-[(2R)-2-({[(2R)-2-hydroxy-2-(3-pyridinyl)ethyl]amino}methyl)-3,4-dihydro-2H-chromen-6-yl]-N-(3-pyridinyl)benzenesulfonamide] | ≤ 1000 |

Now from value to compound:

| EC50 [nM] | SMILES |
| --- | --- |
| ≤ 1000 | O[C@@H](CNC[C@H]1CCc2cc(I)ccc2O1)c1cccnc1 [Example 36, (1R)-2-({[(2R)-6-iodo-3,4-dihydro-2H-chromen-2-yl]methyl}amino)-1-(3-pyridinyl)ethanol] |
| ≤ 1000 | O[C@@H](CNC[C@H]1CCc2cc(-c3ccc(F)cc3)ccc2O1)c1cccnc1 [Example 48] |
| ≤ 1000 | CCOc1cc(-c2ccc3c(c2)CC[C@H](CNC[C@H](O)c2cccnc2)O3)ccc1C(=O)O [Example 185, 2-ethoxy-4-[(2R)-2-({[(2R)-2-hydroxy-2-(3-pyridinyl)ethyl]amino}methyl)-3,4-dihydro-2H-chromen-6-yl]benzoic acid] |
| ≤ 1000 | O=C(O)c1ccc(-c2ccc3c(c2)CC[C@H](CNC[C@H](O)c2cccnc2)O3)cc1Oc1ccc(Cl)cc1 [Example 194, 2-(4-chlorophenoxy)-4-[(2R)-2-({[(2R)-2-hydroxy-2-(3-pyridinyl)ethyl]amino}methyl)-3,4-dihydro-2H-chromen-6-yl]benzoic acid] |
| ≤ 1000 | Cc1ccc(Oc2cc(-c3ccc4c(c3)CC[C@H](CNC[C@H](O)c3cccnc3)O4)ccc2C(=O)O)cc1 [Example 195, 4-[(2R)-2-({[(2R)-2-hydroxy-2-(3-pyridinyl)ethyl]amino}methyl)-3,4-dihydro-2H-chromen-6-yl]-2-(4-methylphenoxy)benzoic acid] |
| ≤ 1000 | O=S(=O)(Nc1ncccn1)c1ccc(-c2ccc3c(c2)CC[C@H](CNC[C@H](O)c2cccnc2)O3)cc1 [Example 249A, 4-[(2R)-2-({[(2R)-2-hydroxy-2-(3-pyridinyl)ethyl]amino}methyl)-3,4-dihydro-2H-chromen-6-yl]-N-(2-pyrimidinyl)benzenesulfonamide] |
| ≤ 1000 | O=S(=O)(Nc1ncccn1)c1ccc(-c2ccc3c(c2)CC[C@@H](CNCC(O)c2cccnc2)O3)cc1 (stereo partly drawn) [Example 249B, 4-[(2S)-2-({[-2-hydroxy-2-(3-pyridinyl)ethyl]amino}methyl)-3,4-dihydro-2H-chromen-6-yl]-N-(2-pyrimidinyl)benzenesulfonamide] |
| ≤ 1000 | O=S(=O)(Nc1cnccc1C(F)(F)F)c1ccc(-c2ccc3c(c2)CC[C@H](CNC[C@H](O)c2cccnc2)O3)cc1 [Example 251] |
| ≤ 1000 | O=S(=O)(Nc1ccccn1)c1cccc(-c2ccc3c(c2)CC[C@H](CNC[C@H](O)c2cccnc2)O3)c1 [Example 254] |

From patent publication US6660752B2, “2,6-Substituted chroman derivatives useful as beta-3 adrenoreceptor agonists” (Bayer Pharmaceuticals Corporation, priority 2001, dated 2003)
